For data set [1] the following is noted: pKa of the free azole ring of the side chain; cited from earlier work.
The target in data set [2] is nNOS (Rattus norvegicus, UniProt P29476). The data set can be described thus: NOS inhibition assay (literature protocols), neuronal isoform. The data set is classed as biochemical. The note with it: for potency (in words): comment on Table 2. From the text: Compounds 3a (not shown, below), 4a, 3c, and 4c were synthesized compounds for purpose of illustration, and 4a, 3c and 4c have been tested using literature protocols. (See, e.g., example 51 of the aforementioned incorporated '790 patent, example 12 of co-pending application Ser. No. 13/250,554 filed Sep. 30, 2011, also incorporated herein by reference in its entirety and, respectively, the references cited therein.) The activities are shown in Table 2.

Data set [3] has as its target iNOS (Mus musculus, UniProt P29477). The data set can be described thus: NOS inhibition assay (literature protocols), inducible isoform. The conditions noted are these: for selectivity i/n: ratio KI iNOS / KI nNOS. The class given is biochemical.
The target in data set [4] is eNOS (Bos taurus, UniProt P29473). Put plainly: NOS inhibition assay (literature protocols), endothelial isoform. The data set is classed as biochemical. The note with it: for selectivity e/n: ratio KI eNOS / KI nNOS.

A word on the Ki: it is a dissociation constant, usually derived from enzyme kinetics or from competition with a known ligand. Higher therefore signals lower affinity.

In the case of `Cn1cnc(CCN)c1` [Compound 5g], the “approximate ring pKa” value in data set [1] is on record as above 7.1.

Take `NCCc1nccs1` [Compound 5c]: the “approximate ring pKa” value in data set [1] is 2.5.

As to `NCCn1ccnc1` [Compound 5e], in data set [1], the “approximate ring pKa” value is listed as above 7.1.

`Cn1cncc1CCN` [Compound 5f]: the “approximate ring pKa” value in data set [1] is given as above 7.1.

Take `NCCc1c[nH]cn1` [Compound 5a]: the “approximate ring pKa” value in data set [1] is listed as 7.1.

Turning to `Cc1cc(N)nc(C[C@H]2CNC[C@H]2OCCNCCc2c[nH]cn2)c1` [Compound 4a], in data set [2], the Ki turned out to be 1.18 µM and the “potency (in words)” value is “moderate potency”. In data set [3], the affinity, expressed as Ki, was 15 µM and the selectivity i/n was found to be 12.7. In addition, in data set [4], the Ki came to 4.23 µM and the selectivity e/n is 3.58.

Consider `Cc1cc(N)nc(C[C@H]2CNC[C@H]2OCCNCCc2nccs2)c1` [Compound 4c], for which, in data set [2], the affinity corresponds to a Ki of 0.044 µM and the “potency (in words)” value is recorded as “moderate potency”. For the same compound, in data set [3], the affinity, expressed as Ki, was 34.4 µM and the selectivity i/n is given as 782. In data set [4], the Ki stood at 9.81 µM and the selectivity e/n is on record as 223.

For the compound `Cc1cc(N)nc(C[C@@H]2CNC[C@@H]2OCCNCCc2nccs2)c1` [Compound 3c], in data set [2], the Ki is 0.716 µM and the “potency (in words)” value is “highly potent”. Also, in data set [3], the Ki worked out at 23.1 µM and the selectivity i/n is 32.3. Further, in data set [4], the Ki came to 0.058 µM and the selectivity e/n is on record as 0.081.

Source of the values: patent US8618143B1, “Selective neuronal nitric oxide synthase inhibitors with azole substituents” (Northwestern University, priority 2010, dated 2013).
